Measured values as given in patent US11168052B2, “Carbamate derivative compounds, processes for preparing them and their uses” (BIO-PHARM SOLUTIONS CO., LTD., priority 2016, dated 2021).

Experiments:
corneally kindled rats = experiment: Corneal kindling (CK) rat model; format: in vivo, Sprague-Dawley rats; settings: po
Excerpt: Male Sprague-Dawley rats (purchased from Orient Bio Inc. Korea) of body weight 85-100 g were used for these studies. The MES test using the electroshock seizure apparatus designed by Rodent Shocker Type221 (Hugo Sachs Elektronik, Germany). The kindled rat models were electrically stimulated (8 mA, 60 Hz, 2 s, corneal electrodes) twice daily for 21 days until stage 5 seizure scored by Racine's scale (Racine, 1972) were evoked. The kindled rats were fasted and adapted to test condition, for at least 1 hour before the administration of test material. The drugs were administered orally (p.o.) in a volume of 4 μl/g body weight. The corneally kindled rat model test is a model for generalized […] seizures or bipolar disorder and identifies the compound which prevents seizure or bipolar disorder spread. The shock level was set at 8 mA, 60 Hz and the duration was set at 2 s. A drop of 0.9% saline was placed in each eye, the electrodes were placed over the eyes, and the shock was administered immediately. Pharmacological effects of the test materials were evaluated to compare the test groups (n=6) with a control group (n=6). Control group was administrated vehicle, only. The peak time was determined by administration test material's random dose for 0.5, 1, 2, 4 hour. The time that the most protect was defined peak time and ED50 was determined by other dose administration at peak time. […]

[1] = system: Post operation-induced pain model in rats; experiment: Antiallodynic activity on post operative-induced pain model (PO), von Frey test; format: in vivo, Sprague-Dawley rats; settings: dose 200 mg/kg, von Frey paw withdrawal threshold relative to sham
Excerpt: Male Sprague-Dawley rats (Orient Bio, Korea, 230-250g) were habituated at least 3 days before surgery, and were allowed free access to food and water throughout the experimentation. Room temperature and humidity were maintained at 24±2 and 50±10%, respectively. The process of performing the post-operation model's surgery was adapted from Brennan et al (1996). At first, rats with allodynia (threshold valueless than 8 g) were excluded in Pre-von Frey Test. During the post-operation surgery, rats were anesthetized under gaseous anesthesia with 2% isoflurane. The rat was placed, lying face down, on 37 degree warm plate to prevent against hypothermia. The ipsilateral plantar aspect (left side) of the hind paw was prepared in a sterile manner with a 10% povidone-iodine solution. […]
For efficacy measure, the threshold value of group C was assigned 100% efficacy, and the percentage of the threshold values of group A compared to group C (for each different dose level) were calculated as the efficacies. Base on these efficacy values, ED50 was calculated using log fitting. […]
For pain threshold test, all animals were placed in a stainless steel meshed chamber and habituated for 30 min in the test cage. The tactile sensitivity of the ipsilateral hind paw was measured using the up-and-down method (Dixon, 1980) with seven von Frey monofilaments (0.4, 1, 2, 4, 6, 8, and 15 g) using 3 trials. […]

[2] = system: PTZ (Pentylenetetrazol)-induced clonic seizure in mice; experiment: Anti-epilepsy activity, scPTZ test in mouse; format: in vivo, ICR mice; settings: ip
Excerpt: In this experiment, each test compound sample was formulated as described in Biological Experimental Example 1, and administered intraperitoneally to the test animals (mice; ICR or Rat; SD); Experimental animals, male ICR mice and male SD rats, were purchased from OrientBio or Nara biotech, Korea, and housed 4-5 mice per a cage for 4-5 days. The range of mice body weight was used between 19 and 26 grams and range of rats body weight was used between 100 and 130 grams. After Peak time (0.5, 1, 2 and 4 hr) from the administration, PTZ (Pentylenetetrazol) was administered subcutaneously in the concentration capable of inducing 97% intermittent convulsions (mice: 100-110 mg/kg?bw, 10 μl/g, or rats: 90-110 mg/kg?bw, 2 μl/g). If clonic seizure was not observed for at least 30 minutes in the PTZ administered animal, it can be considered that the test compound has anti-epilepsy activity. The median effective dose (ED50) is determined using 6 animals per a concentration (total three different concentrations), and calculated by Litchfield and Wicoxon log-probit method which is a dose-response relationship.

Compound: NC(=O)O[C@@H]1CCc2cccc(Cl)c2[C@@H]1O [Example 1, (1S, 2R)-8-chloro-1-hydroxy-1,2,3,4-tetrahydronaphthalen-2-yl carbamate]
- ED50 (corneally kindled rats): 7.5 mg/kg
- Post Operation Efficacy (% of sham threshold) [1]: 200 (29.8%)
- ED50 [2]: 12.5 mg/kg
